Results on 41 compounds are retold here after patent publication US20130029942A1, “COMPOUNDS AND THERAPEUTICAL USES THEREOF” (Myrexis, Inc., priority 2003, published 2013).

The subject of this experiment is P388 murine leukemia cell line. In words: P388 cytotoxicity (ATP-Lite, 72 hours). It is filed as cell-based. To be noted: Mus musculus, P388, 72 hours. The protocol:
A P388 murine leukemia cell line was obtained from NCI, Frederick, Md. P388 cells were cultured in RPMI-1640 supplemented with 10% fetal bovine serum, 2 mM Glutamax, 1 mM sodium pyruvate, 0.1 mM non-essential amino acids and 10 mM HEPES. Cells were grown at 37° C. in a humidified 5% CO2 atmosphere. Exponentially growing P388 cells were plated at 5,000 cells/well in a 96-well flat-bottomed microtiter plate (Corning, Costar #3595). […] Cellular viability was determined 72 hours later by measuring intracellular ATP with ATP-Lite assay system. The effect of compounds on cell viability was calculated by comparing the ATP levels of cells exposed to test compound with those of cells exposed to DMSO. […] Data was analyzed by Prism software (GraphPad; San Diego, Calif.) by fitting it to a sigmoidal dose response curve.

The compound `COc1ccc(N(C)c2nc(NCCO)nc3ccc(N)cc23)cc1` [Example 189, 2-{6-Amino-4-[(4-methoxy-phenyl)-methyl-amino]-quinazolin-2-ylamino}-ethanol] registered an IC50 of 460 nM.
In turn, `COc1ccc(N(C)c2nc(NCCCO)nc3ccccc23)cc1` [Example 180, 3-{4-[(4-Methoxy-phenyl)-methyl-amino]-quinazolin-2-ylamino}-propan-1-ol] came in with an IC50 of 5 nM.
In the case of `CCOC(=O)CNc1nc2c(c(N(C)c3ccc(OC)cc3)n1)CCCC2` [Example 191, {4-[(4-Methoxy-phenyl)-methyl-amino]-5,6,7,8-tetrahydro-quinazolin-2-ylamino}-acetic acid ethyl ester] it was 470 nM.
In the case of `CNc1nc2c(c(N(C)c3ccc(OC)cc3)n1)CCC2` [Example 200, N^4-(4-Methoxy-phenyl)-N^2,N^4-dimethyl-6,7-dihydro-5H-cyclopentapyrimidine-2,4-diamine] it was 7 nM; in that of `CN(c1ccc(O)cc1)c1nc(CN)nc2ccccc12` [Example 230, 4-[(2-Aminomethyl-quinazolin-4-yl)-methyl-amino]-phenol], 1700 nM; in that of `CCOc1ccc(N(C)c2nc(C)nc3ccc(N)cc23)cc1` [Example 214, N^4-(4-Ethoxy-phenyl)-2,N^4-dimethyl-quinazoline-4,6-diamine], 9 nM.
The value for `COc1ccc(N(C)c2nc(CNC(=O)c3cccnc3)nc3ccccc23)cc1` [Example 244, N-{4-[(4-Methoxy-phenyl)-methyl-amino]-quinazolin-2-ylmethyl}-nicotinamide] was 58 nM; that for `COc1ccc(N(C)c2nc(CN)nc3cccc(F)c23)cc1` [Example 229, (2-Aminomethyl-5-fluoro-quinazolin-4-yl)-(4-methoxy-phenyl)-methyl-amine] was 5 nM.
For the compound `Cc1nc(N(C)c2ccc(OC(F)F)cc2)c2cc(N)ccc2n1` [Example 216, N^4-(4-Difluoromethoxy-phenyl)-2,N^4-dimethyl-quinazoline-4,6-diamine], the IC50 was 20 nM.
Take `CCOc1c(Cl)cc(N(C)c2nc(CCl)nc3ccccc23)cc1Cl` [Example 257, (2-Chloromethyl-quinazolin-4-yl)-(3,5-dichloro-4-ethoxy-phenyl)-methyl-amine]: it took 2400 nM to reach half-maximal inhibition (IC50).
`COc1ccc(N(C)c2nc(CN3CCCC3=O)nc3ccccc23)cc1` [Example 255, 1-{4-[(4-Methoxy-phenyl)-methyl-amino]-quinazolin-2-ylmethyl}-pyrrolidin-2-one] returned an IC50 of 610 nM.
The value for `CNCc1nc(N(C)c2ccc(OC)cc2)c2ccccc2n1` [Example 233, (4-Methoxy-phenyl)-methyl-(2-methylaminomethyl-quinazolin-4-yl)-amine] was 1100 nM; that for `COc1ccc(N(C)c2nc(CNC(C)=O)nc3ccccc23)cc1` [Example 203, N-{4-[(4-Methoxy-phenyl)-methyl-amino]-quinazolin-2-ylmethyl}-acetamide] was 19 nM.
Take `COc1ccc(N(C)c2nc(CN)nc3ccccc23)c(F)c1` [Example 218, (2-Aminomethyl-quinazolin-4-yl)-(2-fluoro-4-methoxy-phenyl)-methyl-amine]: half-maximal inhibition (IC50) required 12 nM.
In the case of `CCOc1ccc(N(C)c2nc(CN3C(=O)c4ccccc4C3=O)nc3ccccc23)cc1Cl` [Example 260, 2-{4-[(3-Chloro-4-ethoxy-phenyl)-methyl-amino]-quinazolin-2-ylmethyl}-isoindole-1,3-dione] it was 469 nM.
Take `COc1ccc(N(C)c2nc(C(F)(F)F)nc3ccccc23)cc1` [Example 199, (4-Methoxy-phenyl)-methyl-(2-trifluoromethyl-quinazolin-4-yl)-amine]: the IC50 stood at 3 nM.
As for `COc1ccc(N(C)c2nc(OC(C)C)nc3cccc(F)c23)cc1` [Example 198, (5-Fluoro-2-isopropoxy-quinazolin-4-yl)-(4-methoxy-phenyl)-methyl-amine], half-maximal inhibition (IC50) was put at 3 nM.
In the case of `COc1ccc(N(C)c2nc(N(C)CCCN(C)C)nc3ccccc23)cc1` [Example 183, N^2-(3-Dimethylamino-propyl)-N^4-(4-methoxy-phenyl)-N^2,N^4-dimethyl-quinazoline-2,4-diamine] it was 490 nM.
The value for `COc1ccc(N(C)c2nc(CNC(=O)[C@H](C)N)nc3ccccc23)cc1` [Example 238, (S)-2-Amino-N-{4-[(4-methoxy-phenyl)-methyl-amino]-quinazolin-2-ylmethyl}-propionamide] was 12 nM; that for `CONc1nc2c(c(N(C)c3ccc(OC)cc3)n1)CCC2` [Example 197, N-{4-[(4-Methoxy-phenyl)-methyl-amino]-6,7-dihydro-5H-cyclopentapyrimidin-2-yl}-O-methyl-hydroxylamine] was 8 nM; that for `CCOc1ccc(N(C)c2nc(C)nc3ccccc23)cc1F` [Example 253, (4-Ethoxy-3-fluoro-phenyl)-methyl-(2-methyl-quinazolin-4-yl)-amine] was 3 nM.
On to `COc1ccc(N(C)c2nc(CCl)nc3ccc(Br)cc23)cc1` [Example 208, (6-Bromo-2-chloromethyl-quinazolin-4-yl)-(4-methoxy-phenyl)-methyl-amine], for which the midpoint of inhibition, the IC50, lay at 27 nM.
In the case of `COc1c(Cl)cc(N(C)c2nc(CCl)nc3ccccc23)cc1Cl` [Example 251, (2-Chloromethyl-quinazolin-4-yl)-(3,5-dichloro-4-methoxy-phenyl)-methyl-amine] it was 2080 nM; in that of `CCOC(=O)CNc1nc2c(c(N(C)c3ccc(OC)cc3)n1)CCC2` [Example 202, {4-[(4-Methoxy-phenyl)-methyl-amino]-6,7-dihydro-5H-cyclopentapyrimidin-2-ylamino}-acetic acid ethyl ester], 300 nM; in that of `CNc1nc2c(c(N(C)c3ccc(OC)cc3)n1)CCCCC2` [Example 201, N4-(4-Methoxy-phenyl)-N2,N4-dimethyl-6,7,8,9-tetrahydro-5H-cycloheptapyrimidine-2,4-diamine], 76 nM.
The value for `COc1ccc(N(C)c2nc(C)nc3ccc(Br)cc23)cc1` [Example 245, (6-Bromo-2-methyl-quinazolin-4-yl)-(4-methoxy-phenyl)-methyl-amine] was 2 nM.
In the case of `COc1ccc(N(C)c2nc(CN)nc3ccc(-c4ccc(Cl)cc4)cc23)cc1` [Example 241, [2-Aminomethyl-6-(4-chloro-phenyl)-quinazolin-4-yl]-(4-methoxy-phenyl)-methyl-amine] it was 1440 nM.
The compound `COc1ccc(N(C)c2nc(OC(C)C)nc3ccccc23)cc1` [Example 156, (2-Isopropoxy-quinazolin-4-yl)-(4-methoxy-phenyl)-methyl-amine] yielded an IC50 of 6 nM.
The value for `COc1ccc(N(C)c2nc(NCCCl)nc3ccccc23)cc1` [Example 178, N^2-(2-Chloro-ethyl)-N^4-(4-methoxy-phenyl)-N^4-methyl-quinazoline-2,4-diamine] was 18 nM.
In the case of `COc1ccc(N(C)c2nc(C)nc3ccc([N+](=O)[O-])cc23)cc1F` [Example 210, (3-Fluoro-4-methoxy-phenyl)-methyl-(2-methyl-6-nitro-quinazolin-4-yl)-amine] it was 57 nM.
In the case of `COc1ccc(N(C)c2nc(C)nc3ccc(C#N)cc23)cc1` [Example 249, 4-[(4-Methoxy-phenyl)-methyl-amino]-2-methyl-quinazoline-6-carbonitrile] it was 20 nM; in that of `Cc1nc(N(C)c2ccc(OC(F)F)cc2)c2cc([N+](=O)[O-])ccc2n1` [Example 209, (4-Difluoromethoxy-phenyl)-methyl-(2-methyl-6-nitro-quinazolin-4-yl)-amine], 490 nM.
`Cc1nc(N(C)c2ccc(OC(C)C)cc2)c2cc(N)ccc2n1` [Example 226, N^4-(4-Isopropoxy-phenyl)-2,N^4-dimethyl-quinazoline-4,6-diamine]: the midpoint of inhibition, the IC50, lay at 20 nM.
The value for `Cc1nc(N(C)c2ccc(OC(C)C)cc2)c2cc([N+](=O)[O-])ccc2n1` [Example 224, (4-Isopropoxy-phenyl)-methyl-(2-methyl-6-nitro-quinazolin-4-yl)-amine] was 170 nM.
The value for `Cc1nc(N(C)c2ccc(N(C)C(=O)OC(C)(C)C)cc2)c2ccccc2n1` [Example 204, Methyl-{4-[methyl-(2-methyl-quinazolin-4-yl)-amino]-phenyl}-carbamic acid tert-butyl ester] was 460 nM; that for `CCOc1ccc(N(C)c2nc(CN)nc3ccccc23)cc1Cl` [Example 261] was 9 nM.
For `COc1ccc(N(C)c2nc(CN)nc3ccccc23)cc1Cl` [Example 240, (2-Aminomethyl-quinazolin-4-yl)-(3-chloro-4-methoxy-phenyl)-methyl-amine], the IC50 was 6 nM.
In the case of `CONc1nc2c(c(N(C)c3ccc(OC)cc3)n1)CCCC2` [Example 190, N-{4-[(4-Methoxy-phenyl)-methyl-amino]-5,6,7,8-tetrahydro-quinazolin-2-yl}-O-methyl-hydroxylamine] it was 6 nM; in that of `CCOc1ccc(N(C)c2nc(CN)nc3cccc(F)c23)cc1` [Example 239, (2-Aminomethyl-5-fluoro-quinazolin-4-yl)-(4-ethoxy-phenyl)-methyl-amine], 22 nM.
On to `CCOc1ccc(N(C)c2nc(CN)nc3cccc(F)c23)c(F)c1` [Example 250, (2-Aminomethyl-5-fluoro-quinazolin-4-yl)-(4-ethoxy-2-fluoro-phenyl)-methyl-amine], for which the IC50 was 22 nM.
The compound `COc1ccc(N(C)c2nc(C)nc3c2CCCC3)cc1` [Example 188, (4-Methoxy-phenyl)-methyl-(2-methyl-5,6,7,8-tetrahydro-quinazolin-4-yl)-amine] displayed an IC50 of 2 nM.
